Data reported in ChEMBL document CHEMBL1201862, “PubChem BioAssay data set” (2004).
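Briefly, cells in 96-well plates were exposed to five compound concentrations for 48 h, and endpoints were estimated by linear interpolation. Abbreviation: GI50, concentration required for 50% inhibition of growth.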 Activity calls are given as the source filed them. Cut-off read from the data, not from the text of the source: active = GI50 up to about 1.1 µM and inactive = higher.

Columns and labels:
Assay in all cases: NCI anticancer screen, dose series, 48 h
DLD-1 = test system: DLD-1
DMS-114 = test system: DMS-114
DMS-273 = test system: DMS-273
KM-20L2 = test system: KM-20L2
RXF 631 = test system: RXF 631
SNB-78 = test system: SNB-78
XF498 = test system: XF498
HOP-18 = test system: HOP-18
LXFL 529 = test system: LXFL 529

| SMILES | GI50 (DLD-1) | GI50 (DMS-114) | GI50 (DMS-273) | GI50 (KM-20L2) | GI50 (RXF 631) | GI50 (SNB-78) | GI50 (XF498) | GI50 (HOP-18) | GI50 (LXFL 529) |
| --- | --- | --- | --- | --- | --- | --- | --- | --- | --- |
| CCN(CC)c1ccc(C(=C2C=CC(=[N+](CC)CC)C=C2)c2ccc(N(CC)CC)cc2)cc1 | 0.063 µM (active) | 0.0507 µM (active) | 0.137 µM (active) | 0.184 µM (active) | 0.194 µM (active) | 0.398 µM (active) | 0.0296 µM (active) | – | – |
| CN(C)CC1(C)CC/C(=C\c2ccccc2)C1=O (stereo unspecified) | > 100 µM (inactive) | > 100 µM (inactive) | > 100 µM (inactive) | > 100 µM (inactive) | 49 µM (inactive) | > 100 µM (inactive) | > 100 µM (inactive) | > 100 µM (inactive) | – |
| N#CC(C#N)=Cc1ccc(Oc2ccccc2)cc1 | 14.1 µM (inactive) | 26.2 µM (inactive) | 18.3 µM (inactive) | > 91.4 µM (inactive) | 36.3 µM (inactive) | 28.2 µM (inactive) | 37.8 µM (inactive) | 33.4 µM (inactive) | 25.8 µM (inactive) |
| CC1=C(C(=O)CC(=O)C(=O)Nc2cccc(Cl)c2C)Sc2ccccc2N1 | > 100 µM (inactive) | > 100 µM (inactive) | – | – | > 100 µM (inactive) | > 100 µM (inactive) | > 100 µM (inactive) | > 100 µM (inactive) | > 100 µM (inactive) |
| S=c1nc(N2CCCCC2)ss1 | 26.7 µM (inactive) | 19.7 µM (inactive) | 17.5 µM (inactive) | > 100 µM (inactive) | 29.4 µM (inactive) | 32.2 µM (inactive) | 20.1 µM (inactive) | 40.6 µM (inactive) | 15.1 µM (inactive) |
| O=C1CCCC[C@H]1[C@H]1CCC[C@@H]([C@H]2CCCCC2=O)C1=O | > 100 µM (inactive) | – | > 100 µM (inactive) | > 100 µM (inactive) | > 100 µM (inactive) | 3.44 µM (inactive) | > 100 µM (inactive) | > 100 µM (inactive) | > 100 µM (inactive) |
| C/C(=N\NC(=O)CC(=O)Nc1ccc(Cl)cc1)c1cc2ccccc2oc1=O | > 100 µM (inactive) | > 100 µM (inactive) | > 100 µM (inactive) | > 100 µM (inactive) | – | – | > 100 µM (inactive) | > 100 µM (inactive) | – |
| CCCN(CCCCC(NC(C)=O)C(=O)NCc1ccccc1)C(=O)N(C)N=O (stereo unspecified) | > 100 µM (inactive) | > 100 µM (inactive) | > 100 µM (inactive) | > 100 µM (inactive) | – | > 100 µM (inactive) | > 100 µM (inactive) | – | > 100 µM (inactive) |
| N=C(N)NS(=O)(=O)c1ccc(NCc2c3ccccc3nc3ccccc23)cc1 | 23.5 µM (inactive) | 0.157 µM (active) | 2.1 µM (inactive) | 57.9 µM (inactive) | 4.82 µM (inactive) | 23.1 µM (inactive) | – | 9.18 µM (inactive) | 12.8 µM (inactive) |
| COc1cc(C(=C2SCCS2)c2nccc3cc(OC)c(OC)cc23)c([N+](=O)[O-])cc1OC | > 100 µM (inactive) | 41.6 µM (inactive) | 34.4 µM (inactive) | 51.1 µM (inactive) | – | 18 µM (inactive) | 17.9 µM (inactive) | > 100 µM (inactive) | 18.5 µM (inactive) |
| C/C(=N\NC(N)=S)C(CN(CC(C)C)CC(C)C)C(=O)Nc1ccc(C)cc1C (stereo unspecified) | > 100 µM (inactive) | > 100 µM (inactive) | > 100 µM (inactive) | > 100 µM (inactive) | – | > 100 µM (inactive) | > 100 µM (inactive) | > 100 µM (inactive) | > 100 µM (inactive) |
| Cc1ccccc1C1=[N+]([O-])c2ccc(Cl)cc2C1=O | 7.41 µM (inactive) | – | – | 4.51 µM (inactive) | 3.72 µM (inactive) | – | 4.39 µM (inactive) | 14.1 µM (inactive) | 12 µM (inactive) |
| CC(=O)NC1C(OCc2ccccc2)OC(COC(=O)CCCCCCCCCCNc2ccc([N+](=O)[O-])c3[nH]c4ccccc4c(=O)c23)C(O)C1OC(C)C(=O)NC(C)C(=O)NC(CCC(N)=O)C(=O)OCc1ccccc1 (stereo unspecified) | > 100 µM (inactive) | > 100 µM (inactive) | > 100 µM (inactive) | > 100 µM (inactive) | – | > 100 µM (inactive) | > 100 µM (inactive) | > 100 µM (inactive) | > 100 µM (inactive) |
| O=S(=O)(c1ccccc1)N1CCC1c1ccccc1 (stereo unspecified) | – | 50.1 µM (inactive) | > 100 µM (inactive) | > 100 µM (inactive) | > 100 µM (inactive) | > 100 µM (inactive) | 51.9 µM (inactive) | 51.5 µM (inactive) | – |
| Sc1ccccc1S | > 100 µM (inactive) | > 100 µM (inactive) | > 100 µM (inactive) | > 100 µM (inactive) | > 100 µM (inactive) | > 100 µM (inactive) | > 100 µM (inactive) | > 100 µM (inactive) | > 100 µM (inactive) |
| Cc1ccc(S(=O)(=O)CNC(=S)CCCC(=S)NCS(=O)(=O)c2ccc(C)cc2)cc1 | > 100 µM (inactive) | – | 44.2 µM (inactive) | > 100 µM (inactive) | 41 µM (inactive) | 78.9 µM (inactive) | > 100 µM (inactive) | – | 44.9 µM (inactive) |
| CCCCCCCC(=O)OCC1OC(n2cc(F)c(=O)[nH]c2=O)C(N)C(O)C1O (stereo unspecified) | > 100 µM (inactive) | > 100 µM (inactive) | > 100 µM (inactive) | > 100 µM (inactive) | – | > 100 µM (inactive) | – | > 100 µM (inactive) | > 100 µM (inactive) |
| COc1cccc2c1C(=O)c1c(O)c3c(c(O)c1C2=O)CC(O)(C(C)=O)CC3OC1CC([N+](C)(C)C)C(O)C(C)O1 (stereo unspecified) | 91.2 µM (inactive) | > 100 µM (inactive) | 27.5 µM (inactive) | > 100 µM (inactive) | 31.1 µM (inactive) | > 100 µM (inactive) | 10.7 µM (inactive) | > 100 µM (inactive) | 64.9 µM (inactive) |
| N#C[C-](C#N)[n+]1ccc(Cl)cc1 | 11.5 µM (inactive) | 13.4 µM (inactive) | 18.7 µM (inactive) | 24.2 µM (inactive) | 17.4 µM (inactive) | 17.9 µM (inactive) | 19.3 µM (inactive) | – | 13.6 µM (inactive) |
| COS(=O)CCOC(=O)c1ccccc1SSc1ccccc1C(=O)OCCS(=O)OC (stereo unspecified) | 34.5 µM (inactive) | 16 µM (inactive) | 26.4 µM (inactive) | 61 µM (inactive) | – | > 100 µM (inactive) | 29.8 µM (inactive) | > 100 µM (inactive) | 18.5 µM (inactive) |
| CCN(CC)CCCNc1ncc(C)c2c1c1ccc3c(O)cccc3c1n2C | 1.47 µM (inactive) | 1.39 µM (inactive) | 0.76 µM (active) | 3.07 µM (inactive) | – | 14.2 µM (inactive) | 15.2 µM (inactive) | 0.635 µM (active) | 1.61 µM (inactive) |
| Nc1nc(CCc2n[nH]c(N)n2)n[nH]1 | > 100 µM (inactive) | > 100 µM (inactive) | > 100 µM (inactive) | > 100 µM (inactive) | > 100 µM (inactive) | > 100 µM (inactive) | – | – | > 100 µM (inactive) |
| Cc1c2cc[n+](C)cc2c(C)c2c1[nH]c1ccc(OC(C)(C)C)cc12 | > 100 µM (inactive) | > 100 µM (inactive) | > 100 µM (inactive) | – | – | > 100 µM (inactive) | – | > 100 µM (inactive) | > 100 µM (inactive) |
| Nc1ncnc2c1nc(Cl)n2[C@@H]1O[C@@H]2COP(=O)(O)O[C@H]2[C@H]1O [TOCLADESINE] | 3.81 µM (inactive) | 26.7 µM (inactive) | 3.15 µM (inactive) | 13.5 µM (inactive) | – | 165 µM (inactive) | – | > 109 µM (inactive) | – |
